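These data come from cells grown in 96-well plates and exposed to compound for 48 hours at five concentrations. Abbreviation: GI50, concentration required for 50% inhibition of growth.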 Activity calls are given as the source filed them. No stated cut-off is given here; in the data, active = GI50 up to about 1.1 µM and inactive = higher.
Legend:
Test in all cases: NCI anticancer screen, dose series, 48 h
[1] = tested on: OVCAR-3
[2] = tested on: SF-268
[3] = tested on: MOLT-4
[4] = tested on: TK-10
[5] = tested on: UACC-257
[6] = tested on: UACC-62
[7] = tested on: SN12C
[8] = tested on: A498
[9] = tested on: A549
[10] = tested on: PC-3
[11] = tested on: MCF7
[12] = tested on: UO-31
[13] = tested on: HOP-92
[14] = tested on: OVCAR-8
[15] = tested on: NCI-H522
[16] = tested on: NCI-H226
[17] = tested on: HOP-62
[18] = tested on: SNB-19
[19] = tested on: MDA-MB-435

| SMILES | GI50 [1] | GI50 [2] | GI50 [3] | GI50 [4] | GI50 [5] | GI50 [6] | GI50 [7] | GI50 [8] | GI50 [9] | GI50 [10] | GI50 [11] | GI50 [12] | GI50 [13] | GI50 [14] | GI50 [15] | GI50 [16] | GI50 [17] | GI50 [18] | GI50 [19] |
| --- | --- | --- | --- | --- | --- | --- | --- | --- | --- | --- | --- | --- | --- | --- | --- | --- | --- | --- | --- |
| O=C(O)c1cc(O)nc(S)n1 | > 100 µM (inactive) | > 100 µM (inactive) | > 100 µM (inactive) | > 100 µM (inactive) | > 100 µM (inactive) | > 100 µM (inactive) | > 100 µM (inactive) | > 100 µM (inactive) | > 100 µM (inactive) | > 100 µM (inactive) | > 100 µM (inactive) | > 100 µM (inactive) | > 100 µM (inactive) | > 100 µM (inactive) | > 100 µM (inactive) | > 100 µM (inactive) | > 100 µM (inactive) | > 100 µM (inactive) | > 100 µM (inactive) |
| O=S(=O)(c1ccccc1)N1CCN(S(=O)(=O)c2ccccc2)c2ccccc21 | > 100 µM (inactive) | > 100 µM (inactive) |  | > 100 µM (inactive) | 75.5 µM (inactive) | 64.7 µM (inactive) | > 100 µM (inactive) | > 100 µM (inactive) | > 100 µM (inactive) | > 100 µM (inactive) | 91.8 µM (inactive) | > 100 µM (inactive) | > 100 µM (inactive) | > 100 µM (inactive) | 42.5 µM (inactive) | > 100 µM (inactive) | > 100 µM (inactive) | > 100 µM (inactive) | > 100 µM (inactive) |
| O=C1/C(=C\c2ccc([N+](=O)[O-])cc2)Sc2scc(-c3ccc(O)c(O)c3)[n+]21 | 2.51 µM (inactive) | 4.94 µM (inactive) | 2.62 µM (inactive) | 2.26 µM (inactive) | 6.87 µM (inactive) | 5.61 µM (inactive) | 4.5 µM (inactive) | > 10 µM (inactive) | 17.6 µM (inactive) | 5.71 µM (inactive) | 3.56 µM (inactive) | 4.72 µM (inactive) | 6.4 µM (inactive) | 4.45 µM (inactive) | 1.76 µM (inactive) | 17.8 µM (inactive) | 13.4 µM (inactive) | 21.6 µM (inactive) | 9.75 µM (inactive) |
| CN(C)CCNS(=O)(=O)c1ccc(N)cc1 | 17.2 µM (inactive) | > 100 µM (inactive) | > 100 µM (inactive) | > 100 µM (inactive) | > 100 µM (inactive) | > 100 µM (inactive) | > 100 µM (inactive) | > 100 µM (inactive) | > 100 µM (inactive) | 19.9 µM (inactive) | > 100 µM (inactive) | > 100 µM (inactive) | > 100 µM (inactive) | > 100 µM (inactive) | > 100 µM (inactive) | > 100 µM (inactive) | 18.5 µM (inactive) | > 100 µM (inactive) | > 100 µM (inactive) |
| Nc1ccc(Oc2ccc(C3(c4ccc(Oc5ccc(N)cc5)cc4)C4CC5CC(C4)CC3C5)cc2)cc1 | 0.353 µM (active) | 20.3 µM (inactive) | 4.27 µM (inactive) | 22.8 µM (inactive) | 6.67 µM (inactive) | 17.3 µM (inactive) | 6.28 µM (inactive) | 2.91 µM (inactive) | 6.08 µM (inactive) | 5.7 µM (inactive) | 3.55 µM (inactive) | 3.01 µM (inactive) | 11.5 µM (inactive) | 9.18 µM (inactive) | 11 µM (inactive) | 19.9 µM (inactive) | 11.8 µM (inactive) | 21.4 µM (inactive) | 8.05 µM (inactive) |
| CC(=O)OC12C3C4C1C1C2C3C41OC(C)=O (centres undefined) | > 100 µM (inactive) | > 100 µM (inactive) | > 100 µM (inactive) | > 100 µM (inactive) | > 100 µM (inactive) | > 100 µM (inactive) | > 100 µM (inactive) | > 100 µM (inactive) | > 100 µM (inactive) | > 100 µM (inactive) | > 100 µM (inactive) | > 100 µM (inactive) | > 100 µM (inactive) | > 100 µM (inactive) | > 100 µM (inactive) | > 100 µM (inactive) | > 100 µM (inactive) |  | > 100 µM (inactive) |
| N#CC(N)c1ccc(OCCCCCCCCCCOc2ccc(C(N)C#N)cc2)cc1 (centres undefined) | > 100 µM (inactive) | > 100 µM (inactive) | 18.6 µM (inactive) | > 100 µM (inactive) | > 100 µM (inactive) | > 100 µM (inactive) | > 100 µM (inactive) | > 100 µM (inactive) | > 100 µM (inactive) | > 100 µM (inactive) | > 100 µM (inactive) | > 100 µM (inactive) | > 100 µM (inactive) | 44.3 µM (inactive) | > 100 µM (inactive) | > 100 µM (inactive) |  | > 100 µM (inactive) | > 100 µM (inactive) |
| CC(=O)N1CN2C(=O)CCC2c2cc(C)ccc21 (centres undefined) | > 100 µM (inactive) | > 100 µM (inactive) | > 100 µM (inactive) | > 100 µM (inactive) | > 100 µM (inactive) | > 100 µM (inactive) | > 100 µM (inactive) | > 100 µM (inactive) | > 100 µM (inactive) | > 100 µM (inactive) | > 100 µM (inactive) | > 100 µM (inactive) | > 100 µM (inactive) | > 100 µM (inactive) | > 100 µM (inactive) | > 100 µM (inactive) | > 100 µM (inactive) | > 100 µM (inactive) | > 100 µM (inactive) |
| CC(C)[Si](OC1=CCCCCC12C(=O)N(C)c1ccccc12)(C(C)C)C(C)C (centres undefined) | 16.3 µM (inactive) | 18.4 µM (inactive) | 32.5 µM (inactive) | 29 µM (inactive) | 14.9 µM (inactive) | 18.2 µM (inactive) |  | 15.8 µM (inactive) | 19.8 µM (inactive) | 25.5 µM (inactive) | 16.9 µM (inactive) | 21.3 µM (inactive) | 16.5 µM (inactive) | 21 µM (inactive) | 16.9 µM (inactive) | 20.2 µM (inactive) | 21.6 µM (inactive) | 14.9 µM (inactive) | 25.1 µM (inactive) |
| COc1cc([C@@H]2c3cc4c(cc3C[C@@H]3COC(=O)C32)OCO4)cc(OC)c1O (some centres undefined) | 0.0188 µM (active) | 0.0429 µM (active) | 0.0271 µM (active) | 0.039 µM (active) | 87.7 µM (inactive) | 0.0263 µM (active) | 0.143 µM (active) | 0.211 µM (active) | 0.0668 µM (active) | 0.0234 µM (active) | 0.017 µM (active) | 0.0562 µM (active) | 0.0957 µM (active) |  | 0.0119 µM (active) | 1.39 µM (inactive) | 0.03 µM (active) |  | < 0.01 µM (active) |
| O=C(/C=C/c1ccc2c(c1)OCO2)c1ccc(O)cc1 | 15.5 µM (inactive) | 45.9 µM (inactive) |  | 18.7 µM (inactive) | 15.3 µM (inactive) | 16.8 µM (inactive) | 15.5 µM (inactive) | 23.4 µM (inactive) | 17.4 µM (inactive) | 15 µM (inactive) | 11.1 µM (inactive) | 13.4 µM (inactive) | 14.5 µM (inactive) | 1.64 µM (inactive) | 3.01 µM (inactive) | 18.5 µM (inactive) | 26.8 µM (inactive) | 16.8 µM (inactive) | 14.8 µM (inactive) |
| C=C1[C@@H]([C@@]2(C)C=CC(=O)C(C)(C)[C@@H]2CC(=O)OC)CC[C@@]2(C)[C@H](c3ccoc3)OC(=O)[C@H]3O[C@]132 [ANDIROBIN] | > 100 µM (inactive) | > 100 µM (inactive) | 83.6 µM (inactive) | > 100 µM (inactive) | > 100 µM (inactive) | 77.4 µM (inactive) | > 100 µM (inactive) | 79.4 µM (inactive) | > 100 µM (inactive) | 40.7 µM (inactive) | > 100 µM (inactive) | 73.8 µM (inactive) | > 100 µM (inactive) | > 100 µM (inactive) | > 100 µM (inactive) | > 100 µM (inactive) |  | > 100 µM (inactive) | > 100 µM (inactive) |
| O=C(Nc1nncs1)NS(=O)(=O)n1cnc2ccccc21 | > 100 µM (inactive) | > 100 µM (inactive) | > 100 µM (inactive) | > 100 µM (inactive) | > 100 µM (inactive) | > 100 µM (inactive) | > 100 µM (inactive) | > 100 µM (inactive) | > 100 µM (inactive) | > 100 µM (inactive) | > 10 µM (inactive) |  | > 100 µM (inactive) | > 100 µM (inactive) | > 100 µM (inactive) | > 100 µM (inactive) | > 100 µM (inactive) | > 100 µM (inactive) | > 100 µM (inactive) |
| C=C(C)C1CC2=C(C(=O)OC)C=C(O2)C(C(=C)C)[C@@H]2OC(=O)/C(=C\C1O)[C@H]2N(C)C (some centres undefined) | 12.6 µM (inactive) | 17 µM (inactive) |  | 1.6 µM (inactive) | 20.9 µM (inactive) | 14.5 µM (inactive) | 12.5 µM (inactive) | 17.1 µM (inactive) | 13.9 µM (inactive) | 11.4 µM (inactive) | 5.92 µM (inactive) | 13.4 µM (inactive) | 6.53 µM (inactive) | 10.9 µM (inactive) | 2.91 µM (inactive) | 7.69 µM (inactive) | 19.4 µM (inactive) | 1.65 µM (inactive) | 9.44 µM (inactive) |
| CC(C)C(=O)CP(=O)(O)O | > 100 µM (inactive) | > 100 µM (inactive) | > 100 µM (inactive) | > 100 µM (inactive) | > 100 µM (inactive) | > 100 µM (inactive) | > 100 µM (inactive) | > 100 µM (inactive) | > 100 µM (inactive) | > 100 µM (inactive) | > 100 µM (inactive) |  | > 100 µM (inactive) | > 100 µM (inactive) | > 100 µM (inactive) | > 100 µM (inactive) | > 100 µM (inactive) | > 100 µM (inactive) | > 100 µM (inactive) |
